Assay results: publication PMC9127750, “Structure-based design of CDC42 effector interaction inhibitors for the treatment of cancer” (Cell reports, 2022)
Where “and” joins values, the source holds several entries; their conditions need not be identical. Equal values may be shown once.

Tested on: WM3248 melanoma cells, 486 antibodies
Test: Reverse phase protein arrays (RPPA)
Format: cell-based, Human
Text: Pellets were snap frozen in liquid nitrogen and shipped to MD Anderson Cancer Center core RPPA facility for RPPA analysis (Table S5). Three biological replicates for each sample were generated.
Nomenclatures on the RPPA heatmaps: name_of_antibody.species_of_antibody.status_of_antibody. V - antibody validated; C - validation of antibody in progress; Q - antibody nonspecific; E – under evaluation; antibodies raised in M - mouse, G - goat, R - rabbit, or T - rat.

[1] = Norm_5: replicates 1-3 and Average, relative to 0
[2] = Norm_5, replicates 1-3 and Average, relative to Norm_0

With `CN(C)c1cccc(Nc2cc(-c3ccccc3)nc(C3CCNCC3)n2)c1` [ARN22089, N1,N1-dimethyl-N3-(6-phenyl-2-(piperidin-4-yl)pyrimidin-4-yl)benzene-1,3-diamine] the “RSK1.R.V normalized RPPA signal” value [1] was 1.085 and 0.967 and 1.032, the “RSK.R.C normalized RPPA signal” value [1] was 1.076 and 1.100 and the “Rab11.R.C normalized RPPA signal” value [1] was 1.016 and 1.047 and 1.025 and 1.029. The “Rab25.R.V normalized RPPA signal” value [1] was 0.979 and 1.011 and 0.966 and 0.985, the “Rad17_pS645.R.V normalized RPPA signal” value [1] was 0.979 and 0.856 and 0.975 and the “Rad23A.R.C normalized RPPA signal” value [1] was 0.977 and 1.149 and 0.762 and 0.963. For the same compound, the “Rad50.R.V normalized RPPA signal” value [1] was 1.246 and 0.924 and 1.080, the “Rad51.R.C normalized RPPA signal” value [1] was 0.775 and 0.822 and 0.890 and 0.829 and the “Raptor.R.V normalized RPPA signal” value [1] was 0.903 and 1.058 and 0.970. For the same compound, the “Rb.M.Q normalized RPPA signal” value [1] was 0.962 and 0.918 and 0.956 and 0.945, the “Rb_pS807_S811.R.V normalized RPPA signal” value [1] was 0.882 and 1.011 and 0.977 and the “Rheb.M.C normalized RPPA signal” value [1] was 1.004 and 1.059 and 1.001 and 1.021. For the same compound, the “Rictor.R.C normalized RPPA signal” value [1] was 1.004 and 0.961 and 1.013, the “Rictor_pT1135.R.V normalized RPPA signal” value [1] was 1.047 and 0.998 and 1.024 and 1.023 and the “S6.M.V normalized RPPA signal” value [1] was 1.120 and 0.958 and 1.452. The “S6_pS235_S236.R.V normalized RPPA signal” value [1] was 1.127 and 0.835 and 1.012 and 0.991, the “S6_pS240_S244.R.V normalized RPPA signal” value [1] was 0.956 and 0.805 and 0.753 and 0.838 and the “SCD.M.V normalized RPPA signal” value [1] was 0.971 and 0.991 and 1.085 and 1.016. The “SDHA.R.V normalized RPPA signal” value [1] was 1.033 and 1.016 and 1.031, the “SF2.R.V normalized RPPA signal” value [1] was 0.946 and 0.943 and 1.034 and 0.974 and the “SFRP1.R.V normalized RPPA signal” value [1] was 0.931 and 0.917 and 0.927 and 0.925. For the same compound, the “SGK1.R.V normalized RPPA signal” value [1] was 1.122 and 0.983 and 1.065, the “SGK3.R.V normalized RPPA signal” value [1] was 0.809 and 0.879 and 0.966 and 0.885 and the “SHP2.R.V normalized RPPA signal” value [1] was 0.965 and 0.955 and 0.959 and 0.960. The “SHP.2_pY542.R.C normalized RPPA signal” value [1] was 1.007 and 1.103 and 0.995 and 1.035, the “SIRPαR.V normalized RPPA signal” value [1] was 0.995 and 0.945 and 0.836 and 0.925 and the “SLC1A5.R.C normalized RPPA signal” value [1] was 1.053 and 0.972. The “SOD1.M.V normalized RPPA signal” value [1] was 0.959 and 1.035 and 0.980, the “SOD2.R.V normalized RPPA signal” value [1] was 1.012 and 1.026 and 0.995 and the “SOX7.R.V normalized RPPA signal” value [1] was 0.939 and 1.028 and 0.910 and 0.959. The “STING.R.V normalized RPPA signal” value [1] was 0.946 and 1.077 and 1.149 and 1.057, the “Shc_pY317.R.C normalized RPPA signal” value [1] was 0.575 and 1.701 and 1.009 and the “Slfn11.G.C normalized RPPA signal” value [1] was 0.898 and 1.001 and 0.887 and 0.929. The “Smac.M.Q normalized RPPA signal” value [1] was 0.860 and 1.033 and 0.824 and 0.905, the “Smad1.R.V normalized RPPA signal” value [1] was 1.028 and 1.016 and 1.057 and 1.034 and the “Smad3.R.V normalized RPPA signal” value [1] was 1.027 and 1.110 and 0.885 and 1.007. The “Smad4.R.V normalized RPPA signal” value [1] was 0.953 and 0.919 and 1.129 and 1.000, the “Snail.M.Q normalized RPPA signal” value [1] was 0.807 and 0.836 and 0.899 and 0.847 and the “Sox2.R.V normalized RPPA signal” value [1] was 1.113 and 0.987 and 0.935 and 1.012. The “Sox17.R.V normalized RPPA signal” value [1] was 0.914 and 0.904 and 1.000 and 0.939, the “Src.M.V normalized RPPA signal” value [1] was 0.923 and 1.011 and 1.048 and 0.994 and the “Src_pY416.R.V normalized RPPA signal” value [1] was 0.930 and 0.928 and 0.956. The “Src_pY527.R.V normalized RPPA signal” value [1] was 1.055 and 1.158 and 1.605 and 1.273, the “Stat1_pY701.R.V normalized RPPA signal” value [1] was 0.914 and 0.929 and 0.961 and 0.935 and the “Stat3.R.C normalized RPPA signal” value [1] was 0.970 and 0.910 and 0.975. For the same compound, the “Stat3_pY705.R.C normalized RPPA signal” value [1] was 1.031 and 0.914 and 0.997 and 0.980, the “Stat5a.R.V normalized RPPA signal” value [1] was 0.989 and 1.022 and 1.028 and 1.013 and the “Stathmin.1.R.V normalized RPPA signal” value [1] was 1.025 and 1.018 and 0.975 and 1.006. The “Syk.M.V normalized RPPA signal” value [1] was 0.694 and 0.899 and 1.030 and 0.874, the “Synaptophysin.R.C normalized RPPA signal” value [1] was 0.918 and 0.774 and 1.022 and 0.904 and the “TAZ.R.V normalized RPPA signal” value [1] was 0.970 and 1.124 and 0.886 and 0.994. The “TEAD.R.C normalized RPPA signal” value [1] was 0.913 and 0.942 and 0.954 and 0.936, the “TFAM.R.V normalized RPPA signal” value [1] was 0.945 and 1.024 and 1.101 and 1.023 and the “TFRC.R.V normalized RPPA signal” value [1] was 0.905 and 0.974 and 0.942 and 0.940. For the same compound, the “TIGAR.R.V normalized RPPA signal” value [1] was 1.046 and 0.999 and 1.028, the “TRAP1.M.V normalized RPPA signal” value [1] was 0.917 and 0.980 and 0.909 and 0.935 and the “TRIM24.R.C normalized RPPA signal” value [1] was 0.917 and 0.931 and 1.013 and 0.954. The “TRIM25.R.C normalized RPPA signal” value [1] was 0.925 and 1.108 and 1.361 and 1.131, the “TRIP13.R.V normalized RPPA signal” value [1] was 0.993 and 0.918 and 0.936 and the “Tau.M.C normalized RPPA signal” value [1] was 1.003 and 0.977 and 1.007. The “Transglutaminase.M.V normalized RPPA signal” value [1] was 1.143 and 1.434 and 0.745 and 1.107, the “A.Raf.R.V RPPA signal, normalized” value [2] was 1.063 and 0.973 and 1.128 and 1.055 and the “A.Raf_pS299.R.C RPPA signal, normalized” value [2] was 0.910 and 0.929 and 0.996 and 0.945. For the same compound, the “ACC1.R.C RPPA signal, normalized” value [2] was 1.079 and 1.112, the “ACC_pS79.R.V RPPA signal, normalized” value [2] was 0.996 and 1.006 and 1.005 and 1.002 and the “ACLY_pS455.R.V RPPA signal, normalized” value [2] was 0.993 and 1.161 and 0.844 and 0.999. For the same compound, the “ACSL1.R.V RPPA signal, normalized” value [2] was 0.995 and 0.806 and 0.904, the “ACVRL1.R.C RPPA signal, normalized” value [2] was 0.940 and 0.993 and 0.936 and 0.956 and the “ADAR1.M.V RPPA signal, normalized” value [2] was 0.990 and 0.970 and 1.080 and 1.013. The “ALKBH5.R.V RPPA signal, normalized” value [2] was 1.026 and 1.137 and 0.879 and 1.014, the “AMPK.a2_pS345.R.V RPPA signal, normalized” value [2] was 0.974 and 1.081 and 1.055 and the “AMPKa.R.C RPPA signal, normalized” value [2] was 1.048. For the same compound, the “AMPKa_pT172.R.C RPPA signal, normalized” value [2] was 1.029 and 0.832 and 0.850 and 0.903, the “AR.R.V RPPA signal, normalized” value [2] was 1.053 and 0.956 and 1.050 and 1.020 and the “ARID1A.R.C RPPA signal, normalized” value [2] was 1.008 and 1.012 and 1.065. For the same compound, the “ASNS.R.V RPPA signal, normalized” value [2] was 1.454 and 1.206, the “ATM.R.V RPPA signal, normalized” value [2] was 0.983 and 1.033 and 1.311 and 1.109 and the “ATM_pS1981.R.V RPPA signal, normalized” value [2] was 0.928 and 0.941 and 0.961 and 0.943. The “ATP5A.M.C RPPA signal, normalized” value [2] was 1.127 and 1.377 and 0.535 and 1.013, the “ATP5H.R.V RPPA signal, normalized” value [2] was 1.032 and 1.077 and 0.898 and 1.003 and the “ATR.R.V RPPA signal, normalized” value [2] was 0.945 and 0.970 and 0.954.
